# According to ChEMBL document CHEMBL3217612, “Progress on lamellarins” (Medchemcomm, 2011):
# How the values were obtained:
# HL-60 = experiment: Cytotoxicity against human HL60 cells after 48 hrs by XTT assay; assay type: functional, cell-based; conditions: HL-60, 48 h
# T47D = experiment: Cytotoxicity against human T47D cells after 48 hrs by XTT assay; assay type: functional, cell-based
# KB = experiment: Cytotoxicity against human KB cells after 48 hrs by XTT assay; assay type: functional, cell-based
# A549 = experiment: Cytotoxicity against human A549 cells after 48 hrs by XTT assay; assay type: functional, cell-based; conditions: A549, 48 h
# [1] = Cytotoxicity against human HCC-S102 cells after 48 hrs by XTT assay; assay type: functional, cell-based; conditions: HCC-S102, 48 h
# MRC5 = experiment: Cytotoxicity against human MRC5 cells after 48 hrs by XTT assay; assay type: cell-based; conditions: MRC5, 48 h
# HepG2 = experiment: Cytotoxicity against human HepG2 cells after 48 hrs by XTT assay; assay type: functional, cell-based; conditions: HepG2, 48 h
# H69AR = experiment: Cytotoxicity against human H69AR cells after 48 hrs by XTT assay; assay type: functional, cell-based
# P388 = experiment: Cytotoxicity against mouse P388 cells after 48 hrs by XTT assay; assay type: functional, cell-based; conditions: P388, 48 h
# MDA-MB-231 = experiment: Cytotoxicity against human MDA-MB-231 cells after 48 hrs by XTT assay; assay type: functional, cell-based; conditions: MDA-MB-231, 48 h
# [2] = Cytotoxicity against human HuCCa1 cells after 48 hrs by XTT assay; assay type: functional, cell-based; conditions: HuCC-A1, 48 h
# HeLa = experiment: Cytotoxicity against human HeLa cells after 48 hrs by XTT assay; assay type: functional, cell-based
# [3] = Cytotoxicity against human MOLT3 cells after 48 hrs by XTT assay; assay type: functional, cell-based; conditions: MOLT-3, 48 h
Structure (SMILES),IC50 (HL-60) [nM],IC50 (T47D) [nM],IC50 (KB) [nM],IC50 (A549) [nM],IC50 [1] [nM],IC50 (MRC5) [µM],IC50 (HepG2) [nM],IC50 (H69AR) [nM],IC50 (P388) [nM],IC50 (MDA-MB-231) [nM],IC50 [2] [nM],IC50 (HeLa) [nM],IC50 [3] [nM]
COc1ccc(-c2c3c4cc(OC)c(O)cc4oc(=O)c3n3ccc4cc(O)c(OC)cc4c23)cc1O,40,0.6,60,40,2300,> 100,20,60,80,600,8,40,–
COc1cc(-c2c3c4cc(OC)c(O)cc4[nH]c(=O)c3n3ccc4cc(O)c(OC)cc4c23)ccc1O,–,–,–,740,–,–,130,–,–,–,120,–,30
COc1cc2c(cc1O)oc(=O)c1c2c(-c2ccc(OC)c(OC)c2)c2c3cc(OC)c(O)cc3ccn21,40,0.1,80,40,2100,> 97.4,10,300,80,400,6,80,–
COc1cc(-c2c3c4cc(OC)c(O)cc4oc(=O)c3n3ccc4c(O)c(OC)c(OC)cc4c23)ccc1O,60,9,200,40,1900,13.4,20,300,100,100,60,300,–
COc1ccc(-c2c3c4cc(OC)c(O)cc4oc(=O)c3n3ccc4c(O)c(OC)c(OC)cc4c23)cc1O,200,6,80,300,1600,10.1,200,300,300,80,40,90,–
COc1cc2c(cc1O)oc(=O)c1c2c(-c2ccc(OC)c(OC)c2)c2c3cc(OC)c(OC)c(O)c3ccn21,100,6,300,300,2100,25.8,100,2300,300,300,70,300,–
COc1cc(-c2c3c4cc(OC)c(O)cc4oc(=O)c3n3ccc4cc(O)c(OC)cc4c23)ccc1O [LAMELLARIN D],40,0.08,40,60,3200,9.2,20,400,100,400,80,60,49
